From patent publication US6596064B2, “Biocidal-antifouling agents with low ecotoxicity index” (Luigi Stoppani S.p.A., priority 1999, dated 2003)

Key:
[1] = tested on: vegetation and micro-organisms (algae, bryozoas, acorn barnacles, polichaetas); assay: Example 2: antifouling paints on fibreglass panels immersed in seawater (dockyard of Genoa), comparison with Ciclor 98; settings: for 2^ Controls after a four month exposure: 5% in hard-matrix antifouling paint, no copper (panels P2, P3, P4), seawater, Genoa; for antifouling activity compared to commercial antifouling product Ciclor 98: hard-matrix paints, no copper, seawater Genoa
From the text: The compounds MBP and MTB were examined in different percentages, in hard-matrix antifouling formulations. The tests included the use of a common commercial antifouling product, Ciclor 98, which contains […] as active ingredient, largely used in the formulation of yatch paints, and a control panel (untreated, without biocide), as it is shown in Table III:
(§1) The prepared paints were applied to the fibreglass panels previously treated with a coating of epoxy paint and then immersed in seawater (dockyard of Genoa, Italy, 21/7/1999). To determine the deposition or formation of vegetation and micro-organisms, both qualitatively and quantitatively, and to evaluate the antifouling activity of the samples, two different controls were carried out after two months (1^control) and after 4 months (2^control).

[2] = tested on: vegetation and micro-organisms (algae, bryozoas, acorn barnacles, polichaetas); assay: Example 3: antifouling paints on fibreglass panels immersed in seawater (dockyard of Genoa), comparison with MSB and Ciclor 98; settings: for 2^ Controls after a four month exposure: 0.8% in hard-matrix antifouling paint, +Cu2O per Table V (panels P1, P2), seawater, Genoa; for antifouling activity: 5% in paint, not associated with Cu2O (panels P4, P5, N), MBP and MTB more than Ciclor 98 (panel P7); for antifouling effectiveness: in association with Cu2O (panels P1, P2 and P8), synergistic action
From the text: The compounds MBP and MTB were examined in different percentages, in hard-matrix antifouling formulations. The tests included the use of Ciclor 98, the use of the menadione sodium bisulphite (MSB) and a control panel (untreated), as is shown in Table V:
The prepared paints were applied to the fibreglass panels previously treated with a coating of epoxy paint and then immersed in seawater (dockyard of Genoa, Italy, 21/7/1999).
To determine the deposition or formation of vegetation and micro-organisms, both qualitatively and quantitatively, and to evaluate the antifouling activity of the samples, two different controls were carried out after two months (1^control) and after 4 months (2^control).

[3] = tested on: vegetation and micro-organisms (algae, serpulidae, acorn barnacles, bryozoas); assay: Example 1: antifouling paints on fibreglass panels immersed in seawater (dockyard of La Spezia); settings: 5% in hard-matrix antifouling paint, +Cu2O (panels P34, P35)
From the text: The compounds MBP and MTB were examined in different percentages, singularly and/or in combination, in hard-matrix antifouling formulations containing or not containing copper, as reported in Table I:
as §1, with “different” for “prepared”, “La Spezia,” for “Genoa,”, “9/5/2000).” for “21/7/1999).”, “six” for “4”

Compound	2^ Controls after a four month exposure [1]	antifouling activity compared to commercial antifouling product Ciclor 98 [1]	2^ Controls after a four month exposure [2]	antifouling activity [2]	antifouling effectiveness [2]	2^ Control after a six month exposure [3]
C1CNCCN1.CC1(S(=O)(=O)O)CC(=O)c2ccccc2C1=O.CC1(S(=O)(=O)O)CC(=O)c2ccccc2C1=O (stereo not shown) [MBP, menadione (bis) piperazine bisulfite]	Clean	increased antifouling activity	Clean	excellent antifouling activity	excellent antifouling effectiveness	A few green algae
CC1(S(=O)(=O)[O-])CC(=O)c2ccccc2C1=O.[Na+] (stereo not shown) [MSB, menadione sodium bisulphite, reference compound]				did not show any antifouling activity		
CC1(S(=O)(=O)O)CC(=O)c2ccccc2C1=O.Nc1nc(N)nc(N)n1 (stereo not shown) [MTB, menadione triaminotriazine bisulfite]	Clean	increased antifouling activity	Clean	excellent antifouling activity	excellent antifouling effectiveness	A few green algae
